In ChEMBL document CHEMBL5344425, “Discovery of 5-(Pyrimidin-2-ylamino)-1H-indole-2-carboxamide Derivatives as Nur77 Modulators with Selective and Potent Activity Against Triple-Negative Breast Cancer” (J Med Chem, 2023):
Activity calls are given as the source filed them. No cut-off for these calls is given here.

Experiments:
[1] = target: T1, Nuclear receptor subfamily 4immunitygroup A member 1 (Homo sapiens, UniProt P22736); experiment: Binding affinity to His-tagged Nur77 ligand binding domain (unknown origin) at 10 uM by surface plasmon resonance assay; details: filed as modulator
MDA-MB-231 [2] = experiment: Induction of apoptosis in human MDA-MB-231 cells assessed as PARP cleavage at 2.5 uM pretreated with mTOR inhibitor, rapamycin for 4 hrs followed by compound addition and measured after 6 hrs by western blot analysis; format: functional, cell-based
MDA-MB-231 [3] = experiment: Induction of apoptosis in human MDA-MB-231 cells assessed as increase in cleaved caspase-3 expression at 1 uM measured after 6 hrs by confocal microscopy; format: functional, cell-based
MDA-MB-231 [4] = experiment: Induction of apoptosis in human MDA-MB-231 cells transfected with ctr siRNA assessed as early apoptotic cells at 2 uM measured after 6 hrs by AnnexinV-FITC/PI staining based flow cytometry (reference value: 1.88%); format: functional
[5] = target: T1, Nuclear receptor subfamily 4immunitygroup A member 1; experiment: Binding affinity to His-tagged Nur77 ligand binding domain (unknown origin) by surface plasmon resonance assay
[6] = target: T1, Nuclear receptor subfamily 4immunitygroup A member 1; experiment: Induction of degradation of Myc-tagged Nur77 (unknown origin) transfected in human MDA-MB-231 cells at 2 to 5 uM measured after 6 hrs by western blot analysis; format: cell-based; details: dose 2-5 µM
MDA-MB-231 [7] = experiment: Antiproliferative activity against human MDA-MB-231 cells assessed as inhibition of cell growth measured after 24 hrs by MTT assay; format: functional, cell-based; details: MDA-MB-231, 24 h
BT-549 = experiment: Antiproliferative activity against human BT-549 cells assessed as inhibition of cell growth measured after 24 hrs by MTT assay; format: functional, cell-based; details: BT-549, 24 h
MDA-MB-231 [8] = experiment: Induction of apoptosis in human MDA-MB-231 cells transfected with Nur77 siRNA assessed as loss of mitochondrial membrane potential at 2 uM measured after 6 hrs by JC-1 staining based flow cytometry (reference value: 6.1%); format: functional
[9] = Toxicity in Zebra fish AB embryo assessed as mortality rate at 1.25 to 5 uM measured after 24 to 72 hrs; set-up: species or system Danio rerio; details: zebrafish, dose lower 1.25 µM, time lower 24 hrs, dose upper 5 µM, time upper 72 hrs
[10] = target: T1, Nuclear receptor subfamily 4immunitygroup A member 1; experiment: Antagonist activity at Nur77 ligand binding domain (unknown origin) transfected in HEK293T cells cotransfected with pG5-Luc assessed as inhibition of receptor transcriptional activity at 1 uM measured after 12 hrs by luciferase reporter gene assay; format: cell-based; details: filed as antagonist
[11] = target: T1, Nuclear receptor subfamily 4immunitygroup A member 1; experiment: Modulation of Nur77 in human MDA-MB-231 cells assessed as increase in TP53 phosphorylation at Ser37 residue at 0.31 to 5 uM measured after 6 hrs by western blot analysis; format: cell-based; details: filed as modulator, dose 0.31-5 µM
T47D = experiment: Antiproliferative activity against human T47D cells transfected with Nur77 siRNA assessed as inhibition of cell growth measured after 24 hrs by MTT assay; format: functional, cell-based
MDA-MB-231 [12] = experiment: Induction of apoptosis in human MDA-MB-231 cells transfected with Nur77 siRNA assessed as loss of mitochondrial membrane potential at 1 uM measured after 6 hrs by JC-1 staining based flow cytometry (reference value: 6.1%); format: functional
MDA-MB-231 [13] = experiment: Induction of apoptosis in human MDA-MB-231 cells assessed as proportion of late apoptotic cells at 0.32 uM measured after 5 hrs by AnnexinV-FITC/PI staining based flow cytometry (reference value: 2.55%); format: functional
MDA-MB-231 [14] = experiment: Induction of apoptosis in human MDA-MB-231 cells assessed as proportion of early apoptotic cells at 0.63 uM measured after 5 hrs by AnnexinV-FITC/PI staining based flow cytometry (reference value: 3.35%); format: functional
MDA-MB-231 [15] = experiment: Induction of apoptosis in human MDA-MB-231 cells assessed as PARP cleavage at 2 uM by western blot analysis; format: functional, cell-based; details: time 1-5 hrs, TDE = time-dependent effect
MDA-MB-231 [16] = experiment: Antitumor activity against human MDA-MB-231 cells xenografted in BALB/c mouse assessed as decrease in Ki67 expression in tumor at 10 mg/kg, ip qd for 16 days by immunohistochemical staining based analysis; format: functional, organism-based; details: time 16.0 day
[17] = target: T2, Retinoic acid receptor RXR-alpha (Homo sapiens) (UniProt P19793); experiment: Antagonist activity at RXRalpha (unknown origin) transfected in HEK293T cells cotransfected with pG5-Luc assessed as inhibition of receptor transcriptional activity at 2 uM measured after 12 hrs by luciferase reporter gene assay; format: cell-based
T2 sequence (whole entry): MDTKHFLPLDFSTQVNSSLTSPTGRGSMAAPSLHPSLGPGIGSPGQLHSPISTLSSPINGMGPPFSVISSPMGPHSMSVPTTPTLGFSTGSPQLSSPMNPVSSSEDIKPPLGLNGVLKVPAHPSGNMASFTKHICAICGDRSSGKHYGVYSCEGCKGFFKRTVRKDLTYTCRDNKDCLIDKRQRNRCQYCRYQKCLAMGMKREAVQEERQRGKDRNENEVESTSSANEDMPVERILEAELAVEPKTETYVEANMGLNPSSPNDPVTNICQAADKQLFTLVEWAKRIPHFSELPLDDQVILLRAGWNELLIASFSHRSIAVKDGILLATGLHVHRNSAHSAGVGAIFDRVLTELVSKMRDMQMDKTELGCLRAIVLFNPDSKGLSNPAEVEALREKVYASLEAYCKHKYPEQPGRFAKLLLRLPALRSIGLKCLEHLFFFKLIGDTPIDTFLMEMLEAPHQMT

SW-620 = experiment: Antiproliferative activity against human SW620 cells assessed as inhibition of cell growth measured after 24 hrs by MTT assay; format: functional, cell-based; details: SW-620, 24 h
[18] = target: T1, Nuclear receptor subfamily 4immunitygroup A member 1; experiment: Modulation of Nur77 in human MDA-MB-231 cells assessed as increase in TP53 phosphorylation at Ser392 residue at 0.31 to 5 uM measured after 6 hrs by western blot analysis; format: cell-based; details: dose 0.31-5 µM
MDA-MB-231 [19] = experiment: Induction of apoptosis in human MDA-MB-231 cells assessed as proportion of early apoptotic cells at 0.32 uM measured after 5 hrs by AnnexinV-FITC/PI staining based flow cytometry (reference value: 3.35%); format: functional
MDA-MB-231 [20] = experiment: Induction of apoptosis in human MDA-MB-231 cells assessed as proportion of early apoptotic cells at 2.5 uM measured after 5 hrs by AnnexinV-FITC/PI staining based flow cytometry (reference value: 3.35%); format: functional
MDA-MB-231 [21] = experiment: Induction of apoptosis in human MDA-MB-231 cells transfected with ctr siRNA assessed as late apoptotic cells at 1 uM measured after 6 hrs by AnnexinV-FITC/PI staining based flow cytometry (reference value: 3.97%); format: functional
MDA-MB-231 [22] = experiment: Induction of apoptosis in human MDA-MB-231 cells assessed as proportion of early apoptotic cells at 5 uM measured after 5 hrs by AnnexinV-FITC/PI staining based flow cytometry (reference value: 3.35%); format: functional
[23] = Toxicity in Zebra fish AB embryo assessed as induction of morphological abnormalities at 1.25 uM measured after 24 to 72 hrs; set-up: species or system Danio rerio; details: zebrafish, time 24-72 hrs
MDA-MB-231 [24] = experiment: Induction of apoptosis in human MDA-MB-231 cells transfected with Myc-Nur77 R184A mutant assessed as PARP cleavage at 2 to 5 uM measured after 6 hrs by western blot analysis; format: functional, cell-based; details: dose 2-5 µM

T1 sequence (P22736 whole entry, the tested form may be a part): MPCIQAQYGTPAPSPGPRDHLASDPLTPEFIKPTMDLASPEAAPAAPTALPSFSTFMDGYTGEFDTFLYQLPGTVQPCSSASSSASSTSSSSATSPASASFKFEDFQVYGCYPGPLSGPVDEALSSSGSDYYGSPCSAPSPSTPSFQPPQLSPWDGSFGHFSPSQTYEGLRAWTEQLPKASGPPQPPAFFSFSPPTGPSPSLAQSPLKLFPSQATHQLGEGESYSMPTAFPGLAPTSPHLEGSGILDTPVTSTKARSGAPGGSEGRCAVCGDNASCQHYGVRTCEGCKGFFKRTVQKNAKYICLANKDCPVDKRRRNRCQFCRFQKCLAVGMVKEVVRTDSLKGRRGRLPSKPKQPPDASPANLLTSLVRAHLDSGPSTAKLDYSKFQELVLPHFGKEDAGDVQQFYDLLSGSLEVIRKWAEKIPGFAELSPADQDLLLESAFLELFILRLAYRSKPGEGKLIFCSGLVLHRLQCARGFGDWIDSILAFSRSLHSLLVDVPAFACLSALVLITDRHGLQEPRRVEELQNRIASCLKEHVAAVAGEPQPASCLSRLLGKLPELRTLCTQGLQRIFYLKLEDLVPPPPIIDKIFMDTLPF

CCN(CC)CCCNC(=O)c1cc2cc(Nc3nccc(-c4sc(NC)nc4C)n3)ccc2[nH]1
Activity [1]: Active | Activity (MDA-MB-231 [2]): Active | Activity (MDA-MB-231 [3]): Active | Activity (MDA-MB-231 [4]): 19.23% | Kd [5]: 91 nM | Activity [6]: Active | IC50 (MDA-MB-231 [7]): 400 nM | IC50 (BT-549): 2120 nM | Activity (MDA-MB-231 [8]): 15.41% | Activity [9]: Non-Toxic | inhibition [10]: Active | Activity [11]: Active | IC50 (T47D): 6340 nM | Activity (MDA-MB-231 [12]): 8.57% | Activity (MDA-MB-231 [13]): 5.29% | Activity (MDA-MB-231 [14]): 20.22% | Activity (MDA-MB-231 [15]): Tde | Activity (MDA-MB-231 [16]): Active | inhibition [17]: inactive | IC50 (SW-620): 18100 nM | Activity [18]: inactive | Activity (MDA-MB-231 [19]): 9.81% | Activity (MDA-MB-231 [20]): 38.14% | Activity (MDA-MB-231 [21]): 8.23% | Activity (MDA-MB-231 [22]): 52.78% | Activity [23]: Toxic | Activity (MDA-MB-231 [24]): inactive
